Results as given in PubChem BioAssay (NCI).
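48-hour exposure; five concentrations; linearly interpolated endpoints. At the GI50, growth is halved. TGI denotes the concentration required for complete inhibition of growth.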

How the values were obtained:
Test in all cases: NCI tumour cell line growth inhibition, 48 h
786-0 renal = system: 786-0 renal
A498 renal = system: A498 renal
A549 NSCLC = system: A549 NSCLC
ACHN renal = system: ACHN renal
BT-549 breast = system: BT-549 breast
CAKI-1 renal = system: CAKI-1 renal
CCRF-CEM leukemia = system: CCRF-CEM leukemia
COLO 205 colon = system: COLO 205 colon
DU-145 prostate = system: DU-145 prostate
EKVX NSCLC = system: EKVX NSCLC
HCC-2998 colon = system: HCC-2998 colon
HCT-116 colon = system: HCT-116 colon
HCT-15 colon = system: HCT-15 colon
HL-60(TB) leukemia = system: HL-60(TB) leukemia
HOP-62 NSCLC = system: HOP-62 NSCLC
HOP-92 NSCLC = system: HOP-92 NSCLC
HS 578T breast = system: HS 578T breast
HT29 colon = system: HT29 colon
K-562 leukemia = system: K-562 leukemia
KM12 colon = system: KM12 colon
LOX IMVI melanoma = system: LOX IMVI melanoma
M14 melanoma = system: M14 melanoma
MALME-3M melanoma = system: MALME-3M melanoma
MCF7 breast = system: MCF7 breast
MDA-MB-231 breast = system: MDA-MB-231 breast
MDA-MB-435 = system: MDA-MB-435
MOLT-4 leukemia = system: MOLT-4 leukemia
NCI-H226 lung = system: NCI-H226 lung
NCI-H23 lung = system: NCI-H23 lung
NCI-H460 lung = system: NCI-H460 lung
NCI-H522 lung = system: NCI-H522 lung
NCI/ADR-RES ovarian = system: NCI/ADR-RES ovarian
OVCAR-3 ovarian = system: OVCAR-3 ovarian
OVCAR-4 ovarian = system: OVCAR-4 ovarian
OVCAR-5 ovarian = system: OVCAR-5 ovarian
OVCAR-8 ovarian = system: OVCAR-8 ovarian
PC-3 prostate = system: PC-3 prostate
RXF 393 renal = system: RXF 393 renal
SF-268 CNS = system: SF-268 CNS
SF-295 CNS = system: SF-295 CNS
SF-539 CNS = system: SF-539 CNS
SK-MEL-2 melanoma = system: SK-MEL-2 melanoma
SK-MEL-28 melanoma = system: SK-MEL-28 melanoma
SK-MEL-5 melanoma = system: SK-MEL-5 melanoma
SK-OV-3 ovarian = system: SK-OV-3 ovarian
SN12C renal = system: SN12C renal
SNB-19 CNS = system: SNB-19 CNS
SNB-75 CNS = system: SNB-75 CNS
SR leukemia = system: SR leukemia
SW-620 colon = system: SW-620 colon
T-47D breast = system: T-47D breast
TK-10 renal = system: TK-10 renal
U251 CNS = system: U251 CNS
UACC-257 melanoma = system: UACC-257 melanoma
UACC-62 melanoma = system: UACC-62 melanoma
UO-31 renal = system: UO-31 renal
IGROV1 ovarian = system: IGROV1 ovarian

O=C(c1ccco1)N(Cc1cccnc1)C(=S)N(Cc1cccnc1)C(=O)c1ccco1
TGI (786-0 renal): 11.8 µM | TGI (A498 renal): 62.7 µM | TGI (A549 NSCLC): 38.8 µM | TGI (ACHN renal): 30.7 µM | TGI (BT-549 breast): 66.2 µM | TGI (CAKI-1 renal): 45.4 µM | TGI (CCRF-CEM leukemia): 14.5 µM | TGI (COLO 205 colon): 16.3 µM | TGI (DU-145 prostate): > 100 µM | TGI (EKVX NSCLC): 35.8 µM | TGI (HCC-2998 colon): 31.8 µM | TGI (HCT-116 colon): 20.6 µM | TGI (HCT-15 colon): 77.7 µM | TGI (HL-60(TB) leukemia): 49 µM | TGI (HOP-62 NSCLC): 44.1 µM | TGI (HOP-92 NSCLC): 38.7 µM | TGI (HS 578T breast): 56.4 µM | TGI (HT29 colon): 44.3 µM | TGI (K-562 leukemia): > 100 µM | TGI (KM12 colon): 23.4 µM | TGI (LOX IMVI melanoma): 27.8 µM | TGI (M14 melanoma): 27 µM | TGI (MALME-3M melanoma): 32.7 µM | TGI (MCF7 breast): 14.7 µM | TGI (MDA-MB-231 breast): 22.6 µM | TGI (MDA-MB-435): 38.7 µM | TGI (MOLT-4 leukemia): > 100 µM | TGI (NCI-H226 lung): 47.9 µM | TGI (NCI-H23 lung): 61.6 µM | TGI (NCI-H460 lung): 55.6 µM | TGI (NCI-H522 lung): 29.9 µM | TGI (NCI/ADR-RES ovarian): > 100 µM | TGI (OVCAR-3 ovarian): 23.4 µM | TGI (OVCAR-4 ovarian): 50 µM | TGI (OVCAR-5 ovarian): 46.9 µM | TGI (OVCAR-8 ovarian): 66 µM | TGI (PC-3 prostate): 19.7 µM | TGI (RXF 393 renal): 57.4 µM | TGI (SF-268 CNS): 43.6 µM | TGI (SF-295 CNS): 77.1 µM | TGI (SF-539 CNS): 26.7 µM | TGI (SK-MEL-2 melanoma): 28.1 µM | TGI (SK-MEL-28 melanoma): 45.8 µM | TGI (SK-MEL-5 melanoma): 29.1 µM | TGI (SK-OV-3 ovarian): 83.8 µM | TGI (SN12C renal): 24 µM | TGI (SNB-19 CNS): 83.5 µM | TGI (SNB-75 CNS): 98.7 µM | TGI (SR leukemia): > 100 µM | TGI (SW-620 colon): 36.5 µM | TGI (T-47D breast): 63.2 µM | TGI (TK-10 renal): 23.3 µM | TGI (U251 CNS): 31.4 µM | TGI (UACC-257 melanoma): 31.7 µM | TGI (UACC-62 melanoma): 29.7 µM | TGI (UO-31 renal): 28.8 µM

C/C=C(/C(=C/C)c1ccc(O)cc1)c1ccc(O)cc1
GI50 (786-0 renal): 5.54 µM | TGI (786-0 renal): 27 µM | GI50 (A498 renal): 6.22 µM | TGI (A498 renal): 19.3 µM | GI50 (A549 NSCLC): 4.04 µM | TGI (A549 NSCLC): 19 µM | GI50 (ACHN renal): 9.64 µM | TGI (ACHN renal): 21.4 µM | GI50 (BT-549 breast): 7.39 µM | TGI (BT-549 breast): 22.5 µM | GI50 (CAKI-1 renal): 3.42 µM | TGI (CAKI-1 renal): 16.9 µM | GI50 (COLO 205 colon): 3.25 µM | TGI (COLO 205 colon): 10.5 µM | GI50 (DU-145 prostate): 3.35 µM | TGI (DU-145 prostate): 10.4 µM | GI50 (EKVX NSCLC): 7.38 µM | TGI (EKVX NSCLC): 26.7 µM | GI50 (HCC-2998 colon): 8.64 µM | TGI (HCC-2998 colon): 24 µM | GI50 (HCT-116 colon): 4.58 µM | TGI (HCT-116 colon): 16.2 µM | GI50 (HCT-15 colon): 5.47 µM | TGI (HCT-15 colon): 20.3 µM | GI50 (HL-60(TB) leukemia): 3.9 µM | TGI (HL-60(TB) leukemia): 25.1 µM | GI50 (HOP-62 NSCLC): 3.62 µM | TGI (HOP-62 NSCLC): 16 µM | GI50 (HOP-92 NSCLC): 3.98 µM | TGI (HOP-92 NSCLC): 22.7 µM | GI50 (HS 578T breast): 4.3 µM | TGI (HS 578T breast): 30.2 µM | GI50 (HT29 colon): 3.71 µM | TGI (HT29 colon): 12.6 µM | GI50 (IGROV1 ovarian): 5.41 µM | TGI (IGROV1 ovarian): 36.8 µM | GI50 (KM12 colon): 3.73 µM | TGI (KM12 colon): 13.6 µM | GI50 (LOX IMVI melanoma): 5.51 µM | TGI (LOX IMVI melanoma): 24.3 µM | GI50 (M14 melanoma): 3.33 µM | TGI (M14 melanoma): 12.5 µM | GI50 (MALME-3M melanoma): 7.07 µM | TGI (MALME-3M melanoma): 31 µM | GI50 (MCF7 breast): 7.19 µM | TGI (MCF7 breast): 26.1 µM | GI50 (MDA-MB-231 breast): 4.58 µM | TGI (MDA-MB-231 breast): 22.2 µM | GI50 (MDA-MB-435): 1.19 µM | TGI (MDA-MB-435): 3.56 µM | GI50 (MOLT-4 leukemia): 5.43 µM | TGI (MOLT-4 leukemia): 24.2 µM | GI50 (NCI-H226 lung): 9.36 µM | TGI (NCI-H226 lung): 47 µM | GI50 (NCI-H23 lung): 5.3 µM | TGI (NCI-H23 lung): 21.9 µM | GI50 (NCI-H460 lung): 3.44 µM | TGI (NCI-H460 lung): 13.2 µM | GI50 (NCI-H522 lung): 3.63 µM | TGI (NCI-H522 lung): 16.9 µM | GI50 (NCI/ADR-RES ovarian): 2.81 µM | TGI (NCI/ADR-RES ovarian): 9.28 µM | GI50 (OVCAR-3 ovarian): 2.37 µM | TGI (OVCAR-3 ovarian): 5.38 µM | GI50 (OVCAR-4 ovarian): 8.18 µM | TGI (OVCAR-4 ovarian): 33.6 µM | GI50 (OVCAR-5 ovarian): 8.38 µM | TGI (OVCAR-5 ovarian): 23.2 µM | GI50 (OVCAR-8 ovarian): 4.65 µM | TGI (OVCAR-8 ovarian): 25.4 µM | GI50 (PC-3 prostate): 4.51 µM | TGI (PC-3 prostate): 17.4 µM | GI50 (RXF 393 renal): 4.03 µM | TGI (RXF 393 renal): 17.7 µM | GI50 (SF-268 CNS): 6.32 µM | TGI (SF-268 CNS): 22.8 µM | GI50 (SF-295 CNS): 2.48 µM | TGI (SF-295 CNS): 8.11 µM | GI50 (SF-539 CNS): 3.27 µM | TGI (SF-539 CNS): 13.8 µM | GI50 (SK-MEL-2 melanoma): 8.4 µM | TGI (SK-MEL-2 melanoma): 30.7 µM | GI50 (SK-MEL-28 melanoma): 5.71 µM | TGI (SK-MEL-28 melanoma): 21.1 µM | GI50 (SK-MEL-5 melanoma): 3.56 µM | TGI (SK-MEL-5 melanoma): 15.2 µM | GI50 (SK-OV-3 ovarian): 2.54 µM | TGI (SK-OV-3 ovarian): 8.88 µM | GI50 (SN12C renal): 5.22 µM | TGI (SN12C renal): 22.9 µM | GI50 (SNB-19 CNS): 4.79 µM | TGI (SNB-19 CNS): 21 µM | GI50 (SNB-75 CNS): 1.9 µM | TGI (SNB-75 CNS): 5.34 µM | GI50 (SR leukemia): 4.24 µM | TGI (SR leukemia): 92.9 µM | GI50 (SW-620 colon): 3.85 µM | TGI (SW-620 colon): 14.9 µM | GI50 (T-47D breast): 5.11 µM | TGI (T-47D breast): 21.9 µM | GI50 (TK-10 renal): 12.8 µM | TGI (TK-10 renal): 29.4 µM | GI50 (U251 CNS): 3.49 µM | TGI (U251 CNS): 15.9 µM | GI50 (UACC-257 melanoma): 9.4 µM | TGI (UACC-257 melanoma): 24.8 µM | GI50 (UACC-62 melanoma): 4.86 µM | TGI (UACC-62 melanoma): 18.7 µM | GI50 (UO-31 renal): 5.34 µM | TGI (UO-31 renal): 24.9 µM
